Source: patent publication US10611740B2, “Aryl dihydro-2H-benzo[b][1,4]oxazine sulfonamide and related compounds for use as agonists of RORγ and the treatment of disease” (Lycera Corporation, priority 2015, dated 2020)

Tests used:
RORγ-LBD = target: T1, RORγ-LBD (Homo sapiens, UniProt P51449); assay: RORγ-Ligand Binding Domain (LBD) TR-FRET Assay; assay type: biochemical;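 on TR-FRET Assay Max Response: 665/615 nm ratio relative to signal without ursolic acid or compound set at 100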
T1 construct: made in house; host or cells: SF9 cells (baculovirus)
T1 sequence (P51449 269-508 limits assumed): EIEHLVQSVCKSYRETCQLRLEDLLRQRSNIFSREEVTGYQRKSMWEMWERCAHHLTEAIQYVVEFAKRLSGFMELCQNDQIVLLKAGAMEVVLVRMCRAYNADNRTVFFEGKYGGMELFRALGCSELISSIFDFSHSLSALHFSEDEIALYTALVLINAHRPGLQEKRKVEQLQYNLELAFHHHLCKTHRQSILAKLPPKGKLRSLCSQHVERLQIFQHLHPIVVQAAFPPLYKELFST
Summary of the method: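 Compounds, diluted in DMSO and then in assay buffer (1% DMSO final), were combined with His-tagged RORγ-LBD lysate at roughly 3 nM final and a 200 nM biotinylated SRC1 LXXLL peptide. Ursolic acid was included at 2 μM final. Coactivator recruitment was detected by TR-FRET.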

Gal4-RORγ-LBD = target: T2, Gal4-RORγ-LBD (Homo sapiens, UniProt P51449); assay: Gal4-RORγ Luciferase Reporter Assay in HEK-293T Cells; assay type: cell-based; conditions: HEK-293 cells, luciferase reporter, with 2 μM ursolic acid
T2 construct: expressed in transfected cells; host or cells: HEK-293 cells (pcDNA3.1neo plasmid)
T2 sequence (P51449 269-508 limits assumed): T1 sequence (P51449 269-508 limits assumed)
Summary of the method: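 HEK-293 cells were transiently co-transfected with Gal4-RORγ-LBD and pGL4.31 Gal4-luciferase, with ursolic acid added at 2 μM final. Compounds were incubated overnight at 37° C. in 0.2% DMSO and luminescence read with One-Glo. Max Response is the upper plateau of a 4-parameter logistic fit, with signal lacking ursolic acid or compound set to 100.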

| SMILES | EC50 (RORγ-LBD) [nM] | EC50 (Gal4-RORγ-LBD) [nM] | TR-FRET Assay Max Response (RORγ-LBD) | Gal4-RORγ Assay Max Response (Gal4-RORγ-LBD) |
| --- | --- | --- | --- | --- |
| COc1cc(F)cc(-c2ccc3c(c2)N(S(=O)(=O)c2cccc(C(F)(F)F)c2)C[C@H](CNC(=O)C(C)(C)O)O3)c1F [Compound 30L, (S)-N-((6-(2,5-difluoro-3-methoxyphenyl)-4-((3-(trifluoromethyl)phenyl)sulfonyl)-3,4-dihydro-2H-benzo[b][1,4]oxazin-2-yl)methyl)-2-hydroxy-2-methylpropanamide] | < 500 | < 500 | **** (The symbol “****” indicates a value greater than 200) | * (The symbol “*” indicates a value in the range of 25 to 90) |
| COc1cc(S(=O)(=O)N2C[C@H](CCNC(=O)C(C)(C)O)Oc3ccc(-c4cc(F)ccc4F)cc32)ccc1F [Compound 30M, (S)-N-(2-(6-(2,5-difluorophenyl)-4-((4-fluoro-3-methoxyphenyl)-sulfonyl)-3,4-dihydro-2H-benzo[b][1,4]oxazin-2-yl)ethyl)-2-hydroxy-2-methylpropanamide] | < 500 | < 500 | *** (The symbol “***” indicates a value in the range of greater than 150 to 200) | * (The symbol “*” indicates a value in the range of 25 to 90) |
| COc1cc(S(=O)(=O)N2C[C@H](CCNC(=O)C(C)(C)O)Oc3ccc(-c4cccc(C(F)(F)F)n4)cc32)ccc1F [Compound 30O, (S)-N-(2-(4-((4-fluoro-3-methoxyphenyl)sulfonyl)-6-(6-(trifluoromethyl)pyridin-2-yl)-3,4-dihydro-2H-benzo[b][1,4]-oxazin-2-yl)ethyl)-2-hydroxy-2-methylpropanamide] | < 500 | < 500 | **** (The symbol “****” indicates a value greater than 200) | ** (The symbol “**” indicates a value in the range of greater than 90 to 150) |
| CC(C)(O)C(=O)NCC[C@H]1CN(S(=O)(=O)c2cccc(OC(F)F)c2)c2cc(-c3cc(F)ccc3F)ccc2O1 [Compound 30P, (S)-N-(2-(4-((3-(difluoro-methoxy)phenyl)sulfonyl)-6-(2,5-difluorophenyl)-3,4-dihydro-2H-benzo[b][1,4]oxazin-2-yl)ethyl)-2-hydroxy-2-methylpropanamide] | < 500 | < 500 | **** (The symbol “****” indicates a value greater than 200) | ** (The symbol “**” indicates a value in the range of greater than 90 to 150) |
| COc1cc(S(=O)(=O)N2C[C@H](CNC(=O)C(C)(C)O)Oc3ccc(-c4cc(F)ccc4F)cc32)ccc1F [Compound 30Q, (S)-N-((6-(2,5-difluorophenyl)-4-((4-fluoro-3-methoxyphenyl)-sulfonyl)-3,4-dihydro-2H-benzo[b][1,4]oxazin-2-yl)methyl)-2-hydroxy-2-methylpropanamide] | < 500 | < 500 | **** (The symbol “****” indicates a value greater than 200) | * (The symbol “*” indicates a value in the range of 25 to 90) |
| CC(C)(O)C(=O)NC[C@H]1CN(S(=O)(=O)c2cccc(OC(F)F)c2)c2cc(-c3cc(F)ccc3F)ccc2O1 [Compound 30R, (S)-N-((4-((3-(difluoromethoxy)-phenyl)sulfonyl)-6-(2,5-difluorophenyl)-3,4-dihydro-2H-benzo[b][1,4]oxazin-2-yl)methyl)-2-hydroxy-2-methylpropanamide] | < 500 | < 500 | **** (The symbol “****” indicates a value greater than 200) | ** (The symbol “**” indicates a value in the range of greater than 90 to 150) |
| COc1cc(S(=O)(=O)N2C[C@H](CNC(=O)[C@@](C)(O)C(F)(F)F)Oc3ccc(-c4cc(F)ccc4F)cc32)ccc1F [Compound 30X, (R)-N-(((S)-6-(2,5-difluorophenyl)-4-((4-fluoro-3-methoxyphenyl)sulfonyl)-3,4-dihydro-2H-benzo[b][1,4]oxazin-2-yl)methyl)-3,3,3-trifluoro-2-hydroxy-2-methylpropanamide] | < 500 | < 500 | *** (The symbol “***” indicates a value in the range of greater than 150 to 200) | * (The symbol “*” indicates a value in the range of 25 to 90) |
| O=C(NC[C@H]1CN(S(=O)(=O)c2cccc(C(F)(F)F)c2)c2cc(-c3cc(F)ccc3F)ccc2O1)C1CC1 [Compound 30Y, (S)-N-((6-(2,5-difluorophenyl)-4-((3-(trifluoromethyl)phenyl)-sulfonyl)-3,4-dihydro-2H-benzo[b][1,4]oxazin-2-yl)-methyl)cyclopropane-carboxamide] | < 500 | < 500 | **** (The symbol “****” indicates a value greater than 200) | ** (The symbol “**” indicates a value in the range of greater than 90 to 150) |

Continued, in another order:

| EC50 (RORγ-LBD) [nM] | EC50 (Gal4-RORγ-LBD) [nM] | SMILES | TR-FRET Assay Max Response (RORγ-LBD) | Gal4-RORγ Assay Max Response (Gal4-RORγ-LBD) |
| --- | --- | --- | --- | --- |
| < 500 | < 500 | COc1cccc(-c2ccc3c(c2)N(S(=O)(=O)c2ccc(F)c(OC)c2)C[C@H](CCNC(=O)C(C)(C)O)O3)c1 [Compound 30N, (S)-N-(2-(4-((4-fluoro-3-methoxyphenyl)sulfonyl)-6-(3-methoxyphenyl)-3,4-dihydro-2H-benzo[b][1,4]oxazin-2-yl)ethyl)-2-hydroxy-2-methylpropanamide] | *** (The symbol “***” indicates a value in the range of greater than 150 to 200) | * (The symbol “*” indicates a value in the range of 25 to 90) |
| < 500 | < 500 | COc1cccc(-c2ccc3c(c2)N(S(=O)(=O)c2ccc(F)c(OC)c2)C[C@H](CNC(=O)C(C)(C)O)O3)c1 [Compound 30S, (S)-N-((4-((4-fluoro-3-methoxyphenyl)sulfonyl)-6-(3-methoxyphenyl)-3,4-dihydro-2H-benzo[b][1,4]oxazin-2-yl)methyl)-2-hydroxy-2-methylpropanamide] | **** (The symbol “****” indicates a value greater than 200) | * (The symbol “*” indicates a value in the range of 25 to 90) |
| < 500 | < 500 | CC(C)(O)C(=O)NC[C@H]1CN(S(=O)(=O)c2cncc(C(F)(F)F)c2)c2cc(-c3cc(F)ccc3F)ccc2O1 [Compound 30U, (S)-N-((6-(2,5-difluorophenyl)-4-((5-(trifluoromethyl)pyridin-3-yl)sulfonyl)-3,4-dihydro-2H-benzo[b][1,4]oxazin-2-yl)methyl)-2-hydroxy-2-methylpropanamide] | *** (The symbol “***” indicates a value in the range of greater than 150 to 200) | ** (The symbol “**” indicates a value in the range of greater than 90 to 150) |
| < 500 | < 500 | C[C@@](O)(C(=O)NC[C@H]1CN(S(=O)(=O)c2cccc(C(F)(F)F)c2)c2cc(-c3cc(F)ccc3F)ccc2O1)C(F)(F)F [Compound 30V, (R)-N-(((S)-6-(2,5-difluoro-phenyl)-4-((3-(trifluoromethyl)-phenyl)sulfonyl)-3,4-dihydro-2H-benzo[b][1,4]oxazin-2-yl)methyl)-3,3,3-trifluoro-2-hydroxy-2-methylpropanamide] | **** (The symbol “****” indicates a value greater than 200) | * (The symbol “*” indicates a value in the range of 25 to 90) |
| < 500 | < 500 | C[C@](O)(C(=O)NC[C@H]1CN(S(=O)(=O)c2cccc(C(F)(F)F)c2)c2cc(-c3cc(F)ccc3F)ccc2O1)C(F)(F)F [Compound 30W, (S)-N-(((S)-6-(2,5-difluoro-phenyl)-4-((3-(trifluoromethyl)-phenyl)sulfonyl)-3,4-dihydro-2H-benzo[b][1,4]oxazin-2-yl)methyl)-3,3,3-trifluoro-2-hydroxy-2-methylpropanamide] | **** (The symbol “****” indicates a value greater than 200) | ** (The symbol “**” indicates a value in the range of greater than 90 to 150) |
| < 500 | < 500 | O=C(NC[C@H]1CN(S(=O)(=O)c2cccc(C(F)(F)F)c2)c2cc(-c3cc(F)ccc3F)ccc2O1)C1COC1 [Compound 30Z, (S)-N-((6-(2,5-difluorophenyl)-4-((3-(trifluoromethyl)phenyl)-sulfonyl)-3,4-dihydro-2H-benzo[b][1,4]oxazin-2-yl)methyl)oxetane-3-carboxamide] | **** (The symbol “****” indicates a value greater than 200) | * (The symbol “*” indicates a value in the range of 25 to 90) |
| < 500 | < 500 | CC(C)(C[C@H]1CN(S(=O)(=O)c2cccc(C(F)(F)F)c2)c2cc(-c3cc(F)ccc3F)ccc2O1)C(=O)O [Compound 31, (S)-3-(6-(2,5-difluorophenyl)-4-((3-(trifluoromethyl)phenyl)sulfonyl)-3,4-dihydro-2H-benzo[b][1,4]oxazin-2-yl)-2,2-dimethylpropanoic Acid] | **** (The symbol “****” indicates a value greater than 200) | ** (The symbol “**” indicates a value in the range of greater than 90 to 150) |
